Assay results published in US20060182792A1, “Liposome-forming compositions” (priority 2002, published 2006).

Test: Absolute oral bioavailability of liposomally administered octreotide per os in rats
Procedure: Wistar rats (with approximately 250 g body weight) fast for 12 hours and receive 0.5 ml of the aqueous mixture of the composition according to the invention by pharyngeal probe so that the administered amount of octreotide is 100 μg per animal. As a comparative test 100 μg of free octreotide was dissolved in 0.5 ml of PBS and administered via pharyngeal probe. Blood samples were taken after 30, 60, 120 and 240 min. retroorbitally. An i.v. injection of 2 μg of octreotide per animal provided a control in order to determine the absolute bioavailability. […] Six animals were tested for each formulation.

Compound: C[C@@H](O)[C@@H]1NC(=O)[C@H](CCCCN)NC(=O)[C@@H](Cc2c[nH]c3ccccc23)NC(=O)[C@H](Cc2ccccc2)NC(=O)[C@@H](NC(=O)[C@H](N)Cc2ccccc2)CSSC[C@@H](C(=O)N[C@H](CO)[C@@H](C)O)NC1=O [Free, octreotide]
- bioavailability (Wistar, rat, in vivo, 100 μg per animal): 0.5%
- Gain factor of the absolute bioavailability vs free octreotide (free octreotide, oral, 0.1 mg/animal, lipid/peptide 0): 1
